Laboratory results reported in article PMC11674141, “Antimicrobial activity and synergistic effect of phage-encoded antimicrobial peptides with colistin and outer membrane permeabilizing agents against Acinetobacter baumannii” (PeerJ, 2024).
Converted amounts (≈) assume the structure as drawn. Like-named read-outs stand apart in the source and are kept apart here. Where no end group is shown, it is not given here.

Experiments:
A. baumannii ATCC19606 [1] = conditions: for Minimum Inhibitory Concentration (MIC): A. baumannii 19606, sensitive
HepG2 cell line = assay: MTT cell viability assay; assay type: cell-based, human; parameters: key to Mean cell viability (Mean 2; control = 100): % viability relative to control (control = 100%); conditions: for Mean cell viability (Mean 2; control = 100): mean of n = 3
Experimental: We aimed to determine the effects of peptides on cell viability and proliferation in the human hepatocellular carcinoma HepG2 cell line. The MTT assay was performed as described by [Muangpat et al. (2022)] with some modifications. The cells were cultured in Dulbecco’s Modified Eagle Medium (DMEM; Sigma-Aldrich, St. Louis, MO, USA), supplemented with 10% fetal bovine serum (FBS), 100 U/ml penicillin, and 100 μg/ml streptomycin at 37 °C in 5% CO^2 and 95% humidity. The cells were seeded into a 96-well plate at a density of 1 × 10^4 cells/well and allowed to adhere overnight. Then, the cells were exposed for 24 h to various concentrations of peptides. The control cells were cultured in complete DMEM medium containing 0.2% DMSO. After the 24-h incubation period, 20 μL of MTT solution (5 mg/mL in PBS) (Tokyo Chemical Industry Co., Ltd., Tokyo, Japan) was added to each well and incubated for another 2 h at 37 °C. The culture medium was then removed, and formazan crystals formed by viable cells were dissolved in 100 μL of DMSO before measuring the absorbance at 590 nm using a microplate spectrophotometer. The effect of the peptide on cell viability was calculated as a percentage of the control, which was arbitrarily assigned a value of 100% viability. The percentage of cell viability was calculated relative to the control group. The IC₅₀ of the peptides was defined as the concentration that caused a 50% reduction in cell viability compared with the control. The MTT assay was conducted in three independent experiments, each with triplicate wells per condition.

Bacillus subtilis = conditions: B. subtilis, sensitive
[2] = test system: twenty biofilm-forming A. baumannii strains; assay: Inhibition of biofilm formation (crystal violet); assay type: cell-based, Acinetobacter baumannii; parameters: Percent biofilm forming inhibition: concentration or dose not given beside the values; conditions: for average percent inhibition of biofilm formation: twenty A. baumannii strains, peptide at MIC (312.5, 156.25, 156.25 µg/mL), 24 h, crystal violet OD595
Experimental: We determined the ability of peptides to inhibit biofilm formation in twenty biofilm-forming strains using the method described by [Karyne et al. (2020)] with some modifications. Briefly, biofilm-forming strains of A. baumannii were adjusted to an equivalent of the 0.5 McFarland standard in 2× Luria Bertani (LB) broth supplemented with 20% glucose. Then, 50 µL of A. baumannii and 50 µL of peptides were added. […] The plates were incubated overnight at 37 °C. After 24 h of incubation, the culture medium was gently removed, and the wells were washed three times with phosphate-buffered saline. The adherent cells were fixed with absolute methanol for 10 min, stained with 0.4% crystal violet for 15 min, and washed three times with sterile distilled water, then air-dried. The plates were then filled with 250 µL of 33% acetic acid for 15 min. The absorbance at OD595 nm was determined. All experiments were performed in three independent assays, each repeated in triplicate, and the percentage of biofilm reduction was calculated based on treated wells vs. non-treated wells.

Escherichia coli = conditions: E. coli, sensitive
Klebsiella pneumoniae = conditions: K. pneumoniae, sensitive
A. baumannii ATCC19606 [3] = conditions: ATCC19606
Pseudomonas aeruginosa = conditions: P. aeruginosa, sensitive
Staphylococcus aureus = conditions: S. aureus, sensitive
[4] = A. baumannii 19,606, microdilution, MHB, 37 °C overnight, triplicate samples

EYRSSWTGAYGASVLNKYIGMGRNS [PSTF02]
MIC (ATCC19606) (A. baumannii ATCC19606 [1]; ATCC19606): > 5000 µg/mL | MIC values (A. baumannii ATCC19606 [1]; ATCC19606): >5,000 ug/ml

LIAIQIAIKGMLNGWFTGVGFRRKR-NH2 [PE04-1(NH2)]
Mean cell viability (Mean 2; control = 100) (HepG2 cell line; peptide concentration 25 (unit not given)): 94.88 | Mean cell viability (Mean 2; control = 100) (HepG2 cell line; peptide concentration 50 (unit not given)): 86.43 | Mean cell viability (Mean 2; control = 100) (HepG2 cell line; peptide concentration 156.25 (unit not given)): 81.93 | Mean cell viability (Mean 2; control = 100) (HepG2 cell line; peptide concentration 300 (unit not given)): 76.66 | Mean cell viability (Mean 2; control = 100) (HepG2 cell line; peptide concentration 600 (unit not given)): 49.65 | Mean cell viability (Mean 2; control = 100) (HepG2 cell line; peptide concentration 800 (unit not given)): 28.83 | Minimum Inhibitory Concentration (MIC) (MDR-AB, XDR-AB; strain AB003, MDR-AB): 156.25 µg/mL | Minimum Inhibitory Concentration (MIC) (MDR-AB, XDR-AB; strain AB183, XDR-AB): 156.25 µg/mL | Minimum Inhibitory Concentration (MIC) (MDR-AB, XDR-AB; strain AB329, XDR-AB): 312.5 µg/mL | Minimum Inhibitory Concentration (MIC) (MDR-AB, XDR-AB; strain CR89, MDR-AB): 312.5 µg/mL | Minimum Inhibitory Concentration (MIC) (Bacillus subtilis): 19.531 µg/mL | Minimum Inhibitory Concentration (MIC) (A. baumannii ATCC19606 [1]): 156.25 µg/mL | MIC values (A. baumannii ATCC19606 [1]; [4]): 156.25 µg/mL | MIC (ATCC19606) (A. baumannii ATCC19606 [1]; A. baumannii ATCC19606): 156.25 µg/mL | Percent biofilm forming inhibition ([2]; strain AB263, MDR-AB, 2014): 89.6713% | average percent inhibition of biofilm formation [2]: 75.51% | Minimum Inhibitory Concentration (MIC) (Escherichia coli): 156.25 µg/mL | Minimum Inhibitory Concentration (MIC) (Klebsiella pneumoniae): 625 µg/mL | FIC index, peptide plus colistin (A. baumannii ATCC19606 [3]): 0.19 | Minimum Inhibitory Concentration (MIC) (Pseudomonas aeruginosa): 2500 µg/mL | Minimum Inhibitory Concentration (MIC) (Staphylococcus aureus): 39.06 µg/mL

LIAIQIAIKGMLNGWFTGVGFRRKR [PE04-1]
IC50 (reduction of viable cells to 50%) (HepG2 cell line; 24 h, three independent experiments): 1,440 ug/ml | Minimum Inhibitory Concentration (MIC) (MDR-AB, XDR-AB; strain AB003, MDR-AB): 312.5 µg/mL | Minimum Inhibitory Concentration (MIC) (MDR-AB, XDR-AB; strain AB183, XDR-AB): 156.25 µg/mL | Minimum Inhibitory Concentration (MIC) (MDR-AB, XDR-AB; strain AB329, XDR-AB): 625 µg/mL | Minimum Inhibitory Concentration (MIC) (MDR-AB, XDR-AB; strain CR89, MDR-AB): 312.5 µg/mL | Minimum Inhibitory Concentration (MIC) (Bacillus subtilis): 39.06 µg/mL | Minimum Inhibitory Concentration (MIC) (A. baumannii ATCC19606 [1]): 312.5 µg/mL | MIC values (A. baumannii ATCC19606 [1]; [4]): 312.5 µg/mL | MIC (ATCC19606) (A. baumannii ATCC19606 [1]; A. baumannii ATCC19606): 312.5 µg/mL | Percent biofilm forming inhibition ([2]; strain AB23, MDR-AB / CR-AB, 2013): 92.1075% | Percent biofilm forming inhibition ([2]; strain CR65-47, MDR-AB / CR-AB, 2022): 61.4919% | average percent inhibition of biofilm formation [2]: 58.11% | Minimum Inhibitory Concentration (MIC) (Escherichia coli): 2500 µg/mL | Minimum Inhibitory Concentration (MIC) (Klebsiella pneumoniae): 2500 µg/mL | FIC index, peptide plus colistin (A. baumannii ATCC19606 [3]): 0.19 | Minimum Inhibitory Concentration (MIC) (Pseudomonas aeruginosa): 2500 µg/mL | Minimum Inhibitory Concentration (MIC) (Staphylococcus aureus): 39.06 µg/mL

LNSKDYAGAAAQFLVWNKGRVKGKL [PE02-1]
MIC (ATCC19606) (A. baumannii ATCC19606 [1]; ATCC19606): > 2500 µg/mL | MIC values (A. baumannii ATCC19606 [1]; ATCC19606): >2,500 ug/ml

WNKGRVKGKLEVIPGLTNRRKKEKA [PE02-2]
MIC (ATCC19606) (A. baumannii ATCC19606 [1]; ATCC19606): 1250 µg/mL | MIC values (A. baumannii ATCC19606 [1]; ATCC19606): 1,250 ug/ml

KRQTLADKKERKKFHDGLMLNDNIR [PIN02]
MIC (ATCC19606) (A. baumannii ATCC19606 [1]; ATCC19606): > 5000 µg/mL | MIC values (A. baumannii ATCC19606 [1]; ATCC19606): >5,000 ug/ml

CC[C@H](C)[C@H](NC(=O)[C@H](CCCNC(=N)N)NC(=O)[C@H](CC(N)=O)NC(=O)[C@@H](N)CCCCN)C(=O)N[C@H](C(=O)NCC(=O)N1CCC[C@H]1C(=O)N[C@H](C(=O)N[C@@H](Cc1ccc(O)cc1)C(=O)N[C@@H](C)C(=O)N[C@@H](CCCCN)C(=O)N[C@@H](CS)C(=O)N[C@@H](CC(N)=O)C(=O)N[C@@H](CCCNC(=N)N)C(=O)N[C@@H](CO)C(=O)N[C@@H](CCCNC(=N)N)C(=O)N[C@@H](CCC(N)=O)C(=O)N[C@@H](CCSC)C(=O)N[C@@H](C)C(=O)N[C@@H](CC(C)C)C(=O)N[C@@H](CCC(=O)O)C(=O)N[C@@H](CC(N)=O)C(=O)N[C@@H](CCSC)C(=O)N[C@@H](C)C(=O)N[C@@H](Cc1ccccc1)C(=O)O)C(C)C)[C@@H](C)CC [PTL02]
MIC values (A. baumannii ATCC19606 [1]; [4]): 5,000 ug/ml | MIC (ATCC19606) (A. baumannii ATCC19606 [1]; A. baumannii ATCC19606): 5000 µg/mL (≈ 1720 µM)
